Measurements from ChEMBL document CHEMBL1862790, “Optimisation of fenarimol series for the treatment of Chagas disease”.
Values joined by “and” are separate entries in the source; they are usually repeats but may differ in a detail not shown here. Equal entries are not always repeated.

Columns and labels:
[1] = tested on: Trypanosoma cruzi; assay: microbe, parasite or virus in culture; assay type: functional, organism-based, Tulahuen LacZ, Clone C4
[2] = DNDI: Cytotoxicity against L-6 rat myoblasts from skeletal muscle cells; settings: L6 rat skeletal muscle myoblast cells
[3] = tested on: Trypanosoma cruzi; assay: microbe, parasite or virus in culture; assay type: functional, Tulahuen LacZ, Clone C4
[4] = Trypanosoma cruzi, Tulahuen LacZ, Clone C4

SMILES | IC50 [1, 4] | IC50 ([2]; IC50) | IC90 [3, 4] | IC50 [1] | IC50 [2] | IC90 [3]
OC(c1cncnc1)(c1ccccc1Cl)c1ccccc1Cl | 1060 nM | > 100000 nM | – | – | – | –
OC(c1ccc(Cl)cc1)(c1cccnc1)c1ccc(Br)cc1F (configuration not stated) | 27 nM | – | 120 nM | – | – | –
OC(c1ccc(Cl)cc1)(c1cccnc1)c1ccc(Cl)cc1F (configuration not stated) | 14 nM | – | 31 nM | 19 nM | > 100000 nM | 32 nM
[O-][n+]1cncc(C(O)(c2ccc(Cl)cc2)c2ccccc2Cl)c1 (configuration not stated) | 14500 nM | > 100000 nM | – | – | – | –
COC(c1ccc(Cl)cc1)(c1cccnc1)c1ccccc1Cl (configuration not stated) | 90 nM | – | 10000 nM | – | – | –
CC1(C)CC(=O)C(C(=O)c2ccc(Cl)cc2Cl)C(=O)C1 | 58500 nM | 76500 nM | – | – | – | –
CON=C(Cc1ccc(OC)cc1)c1ccc(OC)c(OC)c1OC | > 1000 nM | 92300 nM | – | – | – | –
CC(C)c1ccc(C(O)(c2ccc(C(F)(F)F)cc2)c2cccnc2)cc1 (configuration not stated) | 2 nM | – | 7 nM | – | – | –
OC(c1ccc(Cl)cc1)(c1cccnc1)c1ccc(Cl)s1 (configuration not stated) | 77 nM | 50000 nM | – | – | – | –
CON=C(Cc1ccccc1)c1ccc(OC)cc1 | > 1000 nM | > 100000 nM | – | – | – | –
CON=C(Cc1ccccc1C(=O)O)c1ccc(Cl)cc1 | > 1000 nM | > 100000 nM | – | – | – | –
CC(C)C(=O)N1CCN(C(c2ccc(Cl)cc2)c2cncnc2)CC1 (configuration not stated) | – | – | – | 680 nM | – | > 1000 nM
CS(=O)(=O)N1CCC(CNC(c2ccc(C(F)(F)F)cc2)c2cnccn2)CC1 (configuration not stated) | – | – | – | 360 nM | – | 910 nM
O=C(C1CC1)N1CCC(NC(c2ccc(C(F)(F)F)cc2)c2cnccn2)CC1 (configuration not stated) | – | – | – | 640 nM | – | > 1000 nM
CC(C)Oc1ccccc1C(O)(c1ccc(Cl)cc1)c1cccnc1 (configuration not stated) | 446 nM | – | 820 nM | – | – | –
CON=C(c1ccc(Cl)cc1)C1(c2ccccc2C(=O)O)CC1 | > 1000 nM | > 100000 nM | – | – | – | –
OC(c1cccnc1)(c1cccc(F)c1)c1ccccc1Cl (configuration not stated) | 558 nM | – | > 1000 nM | 752 nM | > 100000 nM | –
OC(c1ccc(Cl)cc1)(c1cccnc1)c1ccccc1F (configuration not stated) | 54 nM | – | 152 nM | 34.8 nM | > 100000 nM | 179 nM

SMILES | IC50 [1, 4] | IC50 ([2]; IC50) | IC90 [3, 4] | IC50 [1] | IC50 [2] | IC90 [3]
O=[N+]([O-])c1ccc(O/N=C/c2cc(Br)c(O)c(Br)c2)c([N+](=O)[O-])c1 | 23900 nM | – | – | – | 83600 nM | –
OC(Cc1ccc(Cl)nc1)c1ccc(Cl)cc1 (configuration not stated) | > 1000 nM | > 100000 nM | – | – | – | –
CON=C(Cc1ccccc1)c1ccc(F)cc1 | > 1000 nM | – | – | – | – | –
CS(=O)(=O)N1CCN(C(c2cccnc2)c2ccc(Cl)cc2F)CC1 (configuration not stated) | – | – | – | 85 nM and 45.3 nM | – | 380 nM and 167 nM
O=C(C1CC1)N1CCC(NC(c2ccc(Cl)cc2)c2cccnc2)CC1 (configuration not stated) | – | – | – | 110 nM | – | –
N#Cc1cccc(OC2CCN(C(c3ccc(C(F)(F)F)cc3)c3cccnc3)CC2)c1 (configuration not stated) | 7.5 nM | – | – | 8.25 nM | – | 12.5 nM and 29 nM
OC(c1ccc(Cl)cc1)(c1cccnc1)c1cccc(F)c1 (configuration not stated) | 100 nM | – | 330 nM | – | – | –
OC(c1ccccc1)(c1ccc(Cl)cc1)c1cncnc1 (configuration not stated) | 462 nM | > 100000 nM | – | – | – | –
OC(c1ccc(F)cc1)(c1ccc(Cl)cc1)c1cncnc1 (configuration not stated) | 641 nM | > 100000 nM | – | – | – | –
Clc1ccc(C(c2ccc(Cl)cc2)c2cccnc2)cc1 | 80 nM | – | 1600 nM | – | – | –
C#CCOC(=O)[C@@H](C)Oc1ccc(Oc2ncc(Cl)cc2F)cc1 [CLODINAFOP PROPARGYL] | 67500 nM | > 100000 nM | – | – | – | –
OC(c1ccc(Cl)cc1)(c1cncnc1)c1ccccc1Cl (configuration not stated) [FENARIMOL] | 250 nM | – | 560 nM | – | – | –
CC(Oc1ccc(Oc2nc3ccc(Cl)cc3o2)cc1)C(=O)O (configuration not stated) [FENOXAPROP] | > 100000 nM | – | – | – | > 100000 nM | –
CNC1=C(c2cccc(C(F)(F)F)c2)C(=O)C(c2ccccc2)O1 (configuration not stated) [FLURTAMONE] | 55500 nM | – | – | – | 82800 nM | –
CON(C)C(=O)Nc1ccc(Br)cc1 [METOBROMURON] | 71800 nM | – | – | – | > 100000 nM | –
CC(Oc1ccc(Cl)cc1Cl)C(=O)O (stereo not drawn) [RAC-DICHLORPROP] | 74000 nM | – | – | – | > 100000 nM | –
Oc1cc(Cl)ccc1Oc1ccc(Cl)cc1Cl [TRICLOSAN] | 53000 nM | – | – | – | 82200 nM | –
